A word on the EC50: it is the midpoint of the concentration-response curve.

This note sets out measurements from US20080280933A1, “BENZIMIDAZOLYL COMPOUNDS” (priority 2006, published 2008).

Read-outs that look alike come from different tables or passages of the source. Where only a bound is given, the exact number is not on record here.

For the assay, the target named is T1, mGluR2 receptor (metabotropic glutamate receptor 2) (Homo sapiens, UniProt Q14416).
T1 construct: expressed in transfected cells
T1 sequence (Q14416 19-872, species assumed): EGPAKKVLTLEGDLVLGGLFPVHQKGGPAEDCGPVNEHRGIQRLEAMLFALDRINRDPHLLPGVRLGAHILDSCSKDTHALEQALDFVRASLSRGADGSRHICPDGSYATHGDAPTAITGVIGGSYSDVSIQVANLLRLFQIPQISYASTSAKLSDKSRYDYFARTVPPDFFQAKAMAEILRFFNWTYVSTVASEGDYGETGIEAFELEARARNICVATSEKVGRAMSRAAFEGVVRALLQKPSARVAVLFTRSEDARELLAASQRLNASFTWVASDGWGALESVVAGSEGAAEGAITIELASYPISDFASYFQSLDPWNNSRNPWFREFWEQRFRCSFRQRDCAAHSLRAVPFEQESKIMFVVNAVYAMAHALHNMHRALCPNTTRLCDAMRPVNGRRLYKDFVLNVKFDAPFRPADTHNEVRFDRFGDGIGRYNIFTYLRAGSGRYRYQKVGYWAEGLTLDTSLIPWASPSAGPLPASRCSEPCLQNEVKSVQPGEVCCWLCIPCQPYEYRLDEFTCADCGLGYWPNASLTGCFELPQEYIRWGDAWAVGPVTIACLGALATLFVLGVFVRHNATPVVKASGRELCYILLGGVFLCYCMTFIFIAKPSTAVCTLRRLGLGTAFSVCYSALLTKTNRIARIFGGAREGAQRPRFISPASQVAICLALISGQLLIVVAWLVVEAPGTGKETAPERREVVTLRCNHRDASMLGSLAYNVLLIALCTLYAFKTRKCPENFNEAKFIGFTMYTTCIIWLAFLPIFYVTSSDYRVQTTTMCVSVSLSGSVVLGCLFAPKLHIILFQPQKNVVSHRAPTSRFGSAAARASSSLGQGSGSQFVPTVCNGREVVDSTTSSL
The experiment in a line: mGluR2 Potentiator Screen, FLIPR, EC10-EC20 glutamate challenge. It is filed as cell-based. The following applies: read-out: EC50. How it is done: Procedure for mGluR2 Potentiator Screen NLB Methods EC10-EC20 Challenge Cell Culture and Plating:
Cells used for this screen are HEK cells stably transfected with the mGluR2 receptor (metabotropic glutamate receptor 2) and the Gα15 G protein. Clones were identified by functional activity (FLIPR). Cells are grown in growth media containing: DMEM High Glucose with Glutamine and Na Pyruvate (GIBCO), 10% (v/v) Heat inactivate FBS (GIBCO) G418 500 ug/ml (from 50 mg/ml stock) (GIBCO) and Blasticidin 3 ug/ml (from 5 mg/ml stock made in H2O) (Invitrogen).
2 days before the assay cell are trypsinized with 0.25% trysin/EDTA (GIBCO), spun down at 1000 rpm for 5 minutes, resuspended in growth media and plated on polystyrene 384 well black wall/clear bottom poly-D-lysine coated plates at a density of approximately 18,000 cells/well in a volume of 50 μL per well. One day before the assay the growth media is removed from the plates by flicking and replaced with media containing DMEM High Glucose without Glutamine and Na Pyruvate (GIBCO) and 10% (v/v) dialyzed FBS (GIBCO). The reason for the removal of glutamine the day before the assay is to minimize the amount of glutamate that will be present during the assay, as endogenous glutarnate released from the cells can reduce the fluorescent response and interfere with the FLIPR screen.
FLIPR Methods and Data Analysis:
On the day of the assay, the FLIPR assay is performed using the following methods:
The pH is adjusted to 7.4 with 1M NaOH. Prepare a 2 mM (approx.) stock solution of Fluo-4.am (Molecular Probes) dye in DMSO −22 μl DMSO per 50 ug vial (440 μL per 1 mg vial). Make a 1 mM (approx.) flou-4, PA working solution per vial by adding 22 μl of 20% pluronic acid (PA) (Molecular Probes) in DMSO to each 50 ug vial (440 μL per 1 mg vial). Prepare a 250 mM Probenecid (Sigma) stock solution by dissolving 0.71 g into 5 ml 1N NaOH and 5 ml assay buffer (for each liter of assay wash buffer). Make 4 uM (approx.) dye incubation media by adding 2.50 ug vials per 11 ml DMEM high glucose without glutamine (220 ml per 1 mg vial). Add 110 μL probenecid stock per 11 ml (2.5 mM final [concentration]). To the dye media add 3 units/ml of glutamic-pyruvic transaminase (GPT, Sigma) and 3 mM Na Pyruvate. The assay has worked with dye concentrations from 2 uM to 8 uM dye as well. To the assay buffer from drug preparation, add 1.83 mls DMSO and 400 μL. 15.8% P104 (from New Leads biology) per liter for final concentrations of 0.18% DMSO and 0.006% P104. To the assay buffer for cell washing, add probenecid in the same manner and concentration that was used for the dye media.
Remove growth media from cell plates by flicking. Add 50 μl/well dye solution. Incubate 1 hour at 37° C. and 5% CO2. Remove dye solution and wash 3 times with assay buffer+probenecid (100 μl probenecid stock per 10 ml buffer), leaving 30 μL/well assay buffer. Wait at least 10-15 minutes. Compounds and agonist challenge additions are performed with the FLIPR. The in addition is for test compounds, which are added as 15 μL of 4× [concentration] of potentiator. The second 2nd addition is 15 μL of 4× [concentration] of agonist or challenge. This achieves 1× concentration of all compounds only after 2nd addition. The 1st and 2nd additions are performed separately using the FLIPR, which give 2 different data files. Compounds are pretreated at least 30 minutes before agonist addition.
Results are analyzed by dividing the peak fluorescent value of the FLIPR response by the […] to achieve a ratio response. The ratios are then analyzed by curve fitting programs. Since potent compounds can give an inverted U dose response curve (due to effects on endogenous glutamate by the potentiators) points are deleted at concentrations higher than the concentration that gives the maximum effect. Maximum values for dose response curves (forced fitting) are derived from standards on the plate.
Compound Preparation and Glutamate Challenge: […]

With `COc1ccccc1C1CCC(=O)N(Cc2nc3ccccc3n2C)CC1` (stereo not drawn) [Entry 291, 5-(2-Methoxy-phenyl)-1-(1-methyl-1H-benzoimidazol-2-ylmethyl)-azepan-2-one], the EC50 was found to be 4.66 µM.
Same read-out and setting: the same measure for `Cn1c(CN2CCC(c3ccccc3F)CC2)nc2cc(CO)ccc21` [Entry 297, (2-((4-(2-Fluorophenyl)piperidin-1-yl)methyl)-1-methyl-1H-benzo[d]imidazol-5-yl)methanol]: 0.169 µM; for `Cn1c(CN2CCC(c3ccccc3F)CC2)nc2cc(C(C)(C)O)ccc21` [Entry 298, 2-(2-((4-(2-fluorophenyl)piperidin-1-yl)methyl)-1-methyl-1H-benzo[d]imidazol-5-yl)propan-2-ol]: over 7.34 µM; for `Cn1c(CN2CCC(c3ccccc3F)CC2)nc2c(F)cccc21` [Entry 325, 4-Fluoro-2-((4-(2-Fluorophenyl)piperidin-1-yl)methyl)-1-methyl-1H-benzo[d]imidazole]: 0.0338 µM.
In the case of `COc1cc(C(F)(F)F)ccc1C1CCN(Cc2nc3ccccc3n2C)CC1` [Entry 354], the concentration for a half-maximal effect (EC50) is under 0.0193 µM. Moreover, the EC50 (listed as 1) is over 6.17 µM.
Consider `Cn1c(CN2CCC(c3ccccc3F)CC2)nc2cc(C(N)=O)ccc21` [Entry 363, 2-((4-(2-Fluorophenyl)piperidin-1-yl)methyl)-1-methyl-1H-benzo[d]imidazol-5-carboxamide], for which the EC50 is 2.02 µM.
Same read-out and setting: with `CC(C)C(=O)N1CC2(CCN(Cc3nc4ccccc4n3C)CC2)c2cc(F)ccc21` [compound 17] the figure was 3.31 µM; with `Cc1nnsc1C(=O)N1CC2(CCN(Cc3nc4ccccc4n3C)CC2)c2cc(F)ccc21` [compound 18], 2.45 µM; with `CC(=O)N1CC2(CCN(Cc3nc4ccccc4n3C)CC2)c2cc(F)ccc21` [compound 19], 4.79 µM.
On the same count and under the same terms, the same measure for `CCC(=O)N1CC2(CCN(Cc3nc4ccccc4n3C)CC2)c2cc(F)ccc21` [compound 20]: 3.39 µM; for `Cc1ccc2c(c1)C1(CCN(Cc3nc4ccccc4n3C)CC1)CN2C(=O)c1snnc1C` [compound 21]: 1.16 µM; for `CC(=O)N1CC2(CCN(Cc3nc4ccccc4n3C)CC2)c2cc(C)ccc21` [compound 22]: 3.83 µM.
Still for that read-out and setting: with `CCC(=O)N1CC2(CCN(Cc3nc4ccccc4n3C)CC2)c2cc(C)ccc21` [compound 23] the figure was 0.926 µM.
As to `Cc1ccc2c(c1)C1(CCN(Cc3nc4ccccc4n3C)CC1)CN2C(=O)C(C)C` [compound 24], the concentration giving a half-maximal response (EC50) was 1.62 µM.
With `Cc1nnsc1C(=O)N1CC2(CCN(Cc3nc4ccccc4n3C)CC2)c2cc(Cl)ccc21` [compound 25], the concentration giving a half-maximal response (EC50) came out at 1.35 µM.
On to `CC(=O)N1CC2(CCN(Cc3nc4ccccc4n3C)CC2)c2cc(Cl)ccc21` [compound 26], for which the concentration for a half-maximal effect (EC50) turned out to be 2.45 µM.
Still for that read-out and setting: with `CCC(=O)N1CC2(CCN(Cc3nc4ccccc4n3C)CC2)c2cc(Cl)ccc21` [compound 27] the figure was 1.06 µM; with `Cc1nnsc1C(=O)N1CC2(CCN(Cc3nc4ccccc4n3C)CC2)c2ccccc21` [compound 28], 2.11 µM; with `Cc1ccc2c(c1)C1(CCN(Cc3nc4ccccc4n3C)CC1)CN2C(=O)c1ccoc1` [compound 29], 2.43 µM.
The same measure, in the same setting: with `COC(=O)CCCCC(=O)N1CC2(CCN(Cc3nc4ccccc4n3C)CC2)c2cc(C)ccc21` [compound 30] the figure was 4.89 µM.
The same measure, in the same setting: with `Cc1ccc2c(c1)C1(CCN(Cc3nc4ccccc4n3C)CC1)CN2C(=O)c1c(C)noc1C` [compound 31] the figure was 2.04 µM; with `COC(=O)CCCC(=O)N1CC2(CCN(Cc3nc4ccccc4n3C)CC2)c2cc(C)ccc21` [compound 32], 1.85 µM; with `CCOC(=O)CCC(=O)N1CC2(CCN(Cc3nc4ccccc4n3C)CC2)c2cc(C)ccc21` [compound 33], 1.35 µM.
For `COC(=O)CCC(=O)N1CC2(CCN(Cc3nc4ccccc4n3C)CC2)c2cc(C)ccc21` [compound 34], the EC50 is 3.15 µM.
Same read-out and setting: with `Cc1ccc2c(c1)C1(CCN(Cc3nc4ccccc4n3C)CC1)CN2C(=O)c1cccnc1` [compound 35] the figure was 3.61 µM.
As to `Cc1ccc2c(c1)C1(CCN(Cc3nc4ccccc4n3C)CC1)CN2C(=O)C1CC1` [compound 36], the concentration giving a half-maximal response (EC50) was found to be 2.33 µM.
Same read-out and setting: with `Cc1ccc2c(c1)C1(CCN(Cc3nc4ccccc4n3C)CC1)CN2C(=O)c1ccco1` [compound 37] the figure was 1.82 µM; with `CCCC(=O)N1CC2(CCN(Cc3nc4ccccc4n3C)CC2)c2cc(C)ccc21` [compound 38], 0.388 µM.
On the same count and under the same terms, the same measure for `Cc1noc(C)c1C(=O)N1CC2(CCN(Cc3nc4ccccc4n3C)CC2)c2cc(Cl)ccc21` [compound 39]: 2.83 µM.
On the same count and under the same terms, the same measure for `CCOC(=O)CCC(=O)N1CC2(CCN(Cc3nc4ccccc4n3C)CC2)c2cc(Cl)ccc21` [compound 41]: 1.63 µM; for `COC(=O)CCC(=O)N1CC2(CCN(Cc3nc4ccccc4n3C)CC2)c2cc(Cl)ccc21` [compound 42]: 3.23 µM.
As for `COCC(=O)N1CC2(CCN(Cc3nc4ccccc4n3C)CC2)c2cc(Cl)ccc21` [compound 44], the concentration for a half-maximal effect (EC50) was over 5.1 µM.
Still for that read-out and setting: with `Cn1c(CN2CCC3(CC2)CN(C(=O)C2CC2)c2ccc(Cl)cc23)nc2ccccc21` [compound 45] the figure was 1.12 µM.
Still for that read-out and setting: the same measure for `Cn1c(CN2CCC3(CC2)CN(C(=O)c2ccco2)c2ccc(Cl)cc23)nc2ccccc21` [compound 46]: over 4.86 µM; for `COc1ccccc1C1CCN(Cc2nc3ccccc3n2C)CC1` [compound 47]: 0.0771 µM; for `Cn1c(CN2CCC3(CC2)CN(C(=O)c2ccc4nccnc4c2)c2ccccc23)nc2ccccc21` [compound 48]: over 6.63 µM.
On the same count and under the same terms, with `Cn1c(CN2CCC3(CC2)CN(C(=O)c2ccsc2)c2ccccc23)nc2ccccc21` [compound 49] the figure was 1.2 µM; with `Cn1c(CN2CCC3(CC2)CN(C(=O)c2ccoc2)c2ccccc23)nc2ccccc21` [compound 50], 4.93 µM; with `COC(=O)CCCCC(=O)N1CC2(CCN(Cc3nc4ccccc4n3C)CC2)c2ccccc21` [compound 51], 7.13 µM.
As to `Cn1c(CN2CCC3(CC2)CN(C(=O)C2COc4ccccc4O2)c2ccccc23)nc2ccccc21` (stereo not drawn) [compound 52], the EC50 worked out at 1.39 µM.
On to `Cc1cc(C(=O)N2CC3(CCN(Cc4nc5ccccc5n4C)CC3)c3ccccc32)n(C)n1` [compound 53], for which the EC50 was over 6.29 µM.
Same read-out and setting: with `Cc1noc(C)c1C(=O)N1CC2(CCN(Cc3nc4ccccc4n3C)CC2)c2ccccc21` [compound 54] the figure was over 5.56 µM; with `Cn1c(CN2CCC3(CC2)CN(C(=O)c2cccc(C#N)c2)c2ccccc23)nc2ccccc21` [compound 55], 3.01 µM; with `Cn1c(CN2CCC3(CC2)CN(C(=O)c2ccc(C#N)cc2)c2ccccc23)nc2ccccc21` [compound 56], 1.75 µM.
Same read-out and setting: with `Cn1c(CN2CCC3(CC2)CN(C(=O)COc2ccccc2)c2ccccc23)nc2ccccc21` [compound 57] the figure was 0.508 µM; with `Cn1c(CN2CCC3(CC2)CN(C(=O)COCc2ccccc2)c2ccccc23)nc2ccccc21` [compound 58], 0.589 µM; with `Cn1c(CN2CCC3(CC2)CN(C(=O)c2cccs2)c2ccccc23)nc2ccccc21` [compound 59], 3.11 µM.
Same read-out and setting: with `Cn1c(CN2CCC3(CC2)CN(C(=O)C2CCC2)c2ccccc23)nc2ccccc21` [compound 60] the figure was 2.22 µM.
Turning to `Cn1c(CN2CCC3(CC2)CN(C(=O)C2CC2)c2ccccc23)nc2ccccc21` [compound 61], the concentration for a half-maximal effect (EC50) amounted to 4.01 µM.
Same read-out and setting: with `CCCCC(=O)N1CC2(CCN(Cc3nc4ccccc4n3C)CC2)c2ccccc21` [compound 62] the figure was 0.261 µM.
